From patent US8580803B2, “Substituted pyrrolo-aminopyrimidine compounds” (ArQule, Inc., priority 2009, dated 2013) come the findings set out here.

SMILES strings stand for the structures.

Test [1] addresses AKT1 (Homo sapiens, UniProt P31749). In words: AKT Kinase Activity Assay (AlphaScreen, crosstide). Particulars: Average of Akt1 biochemical assay. As to the method: AKT1 activity was assayed using the GSK3-derived biotinylated peptide substrate, crosstide (biotin-GRPRTSSFAEG), and AlphaScreen™ (Amplified Luminescent Proximity Homogeneous Assay) technology. AKT1 activation was achieved by the addition of the activating kinases PDK1 and MAPKAPK2, lipid vesicles, and ATP. The extent of peptide phosphorylation was determined using a phospho-AKT substrate antibody and acceptor beads conjugated to Protein A and donor beads conjugated to streptavidin that bind to the biotin on the peptide. Excitation of the donor beads converted ambient oxygen to excited singlet oxygen which, when in close proximity to acceptor beads, reacted with acceptor beads resulting in signal amplification.
Test inhibitors and controls (Abbott inhibitor, Merck pre-clinical inhibitor, and Merck clinical inhibitor) were prepared in 10% DMSO at 10-fold the desired final concentration, and added to each well of a reaction plate (Corning 96-well half-area solid white nonbinding surface plate) in a volume of 2.5 μL. […] After a 20 minute pre-incubation at room temperature, the kinase reaction was initiated by the addition of 5 μL of an activation mixture diluted in assay buffer containing biotinylated crosstide, PDK1, MAPKAPK2, DOPS/DOPC, PtdIns(3,4,5)P3, and ATP for final concentrations of 60 nM biotinylated crosstide, 0.1 nM PDK1, 0.7 nM MK2, 5.5 μM DOPS, 5.5 μM DOPC, 0.5 μM PtdIns(3,4,5)P3, and 50 μM ATP. The plates were incubated for 30 minutes at room temperature, and then stopped in the dark by the addition of 10 μL stop/detection mixture prepared in assay buffer containing EDTA, AlphaScreen™ Streptavidin Donor and Protein A Acceptor beads, and phospho-AKT substrate antibody for final concentrations of 10 mM EDTA, 500 ng/well of both AlphaScreen™ Streptavidin Donor beads and Protein A Acceptor beads, and phospho-AKT substrate antibody at a final dilution of 1:350. Assay plates were incubated for 90 minutes at room temperature in the dark, and the plates were read on a Perkin Elmer Envision Multilabel plate reader ([…]).
(In general: In Alpha technology, singlet oxygen from a donor bead excites a nearby acceptor bead.)

The target in test [2] is T1, ACK1 (110-489) (Homo sapiens, UniProt Q07912).
T1 construct: ACK1 110-489 (12.5 μl) were added to each well
T1 sequence (Q07912 110-489, species assumed): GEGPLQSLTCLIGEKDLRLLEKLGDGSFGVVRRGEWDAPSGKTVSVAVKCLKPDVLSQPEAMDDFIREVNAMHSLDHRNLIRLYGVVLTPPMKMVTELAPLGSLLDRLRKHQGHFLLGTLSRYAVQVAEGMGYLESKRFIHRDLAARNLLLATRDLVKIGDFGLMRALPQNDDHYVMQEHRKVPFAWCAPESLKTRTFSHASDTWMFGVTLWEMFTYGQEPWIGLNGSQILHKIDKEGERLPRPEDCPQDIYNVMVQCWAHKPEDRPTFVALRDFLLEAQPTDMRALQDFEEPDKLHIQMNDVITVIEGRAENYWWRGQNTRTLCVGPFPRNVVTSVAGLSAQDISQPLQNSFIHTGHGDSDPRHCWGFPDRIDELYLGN
In words: ACK1 Activity Assay (AlphaScreen, PYK2-derived peptide). It counts as biochemical. As to the method: The extent of peptide phosphorylation was determined by using acceptor beads conjugated to phosphotyrosine antibody that recognizes the phosphorylated peptide and donor beads conjugated to streptavidin that binds to the biotin on the peptide. Excitation of the donor beads converted ambient oxygen to excited singlet oxygen which when in close proximity to acceptor beads, reacted with acceptor beads where the signal was amplified.
Test inhibitors and controls (N-(2,6-dimethylphenyl)-4-(2-ethoxyphenoxy)-2-[(4-piperazin-1-ylphenyl)amino]pyrimidine-5-carboxamide) were prepared in 10% DMSO at 10× the desired final concentration. […] After a 20-min incubation at room temperature, the kinase reaction was initiated by the addition of 10 μl of PYK2/ATP mixture. […] The plates were incubated for 60 min at room temperature. The reaction was stopped by the addition of 10 μl stop/detection mixture which contains EDTA (final concentration is 10 mM), AlphaScreen™ Streptavidin Donor beads (final concentration is 500 ng/well) and AlphaScreen™ Phospho-tyrosine (P-Tyr-100) Acceptor beads (final concentration is 500 ng/well) were diluted in assay buffer. This reagent addition step was performed in the dark because the AlphaScreen™ beads are light-sensitive. The plate was incubated for 60 min at room temperature in the dark and the plates were read on the Perkin Elmer Envision Multilabel plate reader ([…]).

AKT1, sequence (P31749 whole entry): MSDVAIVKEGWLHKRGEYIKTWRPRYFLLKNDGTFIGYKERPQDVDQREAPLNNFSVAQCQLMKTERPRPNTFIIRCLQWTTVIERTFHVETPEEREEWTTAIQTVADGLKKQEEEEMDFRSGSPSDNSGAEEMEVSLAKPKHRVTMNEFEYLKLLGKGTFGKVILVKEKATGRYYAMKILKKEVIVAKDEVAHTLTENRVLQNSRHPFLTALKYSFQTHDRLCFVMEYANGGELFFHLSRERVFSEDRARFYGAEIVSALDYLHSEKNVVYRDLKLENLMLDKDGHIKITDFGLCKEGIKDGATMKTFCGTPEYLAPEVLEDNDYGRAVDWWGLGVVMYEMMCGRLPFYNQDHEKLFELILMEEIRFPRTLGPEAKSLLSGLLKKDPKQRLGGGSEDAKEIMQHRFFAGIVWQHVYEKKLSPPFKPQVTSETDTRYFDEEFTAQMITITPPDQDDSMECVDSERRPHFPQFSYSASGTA

On to `NC(=O)CCC(=O)Nc1cccc(Nc2ncnc3[nH]cc(C(=O)c4ccccc4)c23)c1` [N-(3-{[5-(phenylcarbonyl)-7H-pyrrolo[2,3-d]pyrimidin-4-yl]amino}phenyl)butanediamide], for which the values for the half-maximal inhibitory concentration (IC50) in test [1] and in test [2] were 1210 nM and 876 nM, respectively.

Regarding `CC(=O)NCC(=O)Nc1cccc(Nc2ncnc3[nH]cc(C(=O)c4ccccc4)c23)c1` [2-acetamido-N-(3-((5-benzoyl-7H-pyrrolo[2,3-d]pyrimidin-4-yl)amino)phenyl)acetamide], the IC50 in test [1] is 94.9 nM; in test [2], 666 nM.

`O=C(c1ccccc1)c1c[nH]c2ncnc(Nc3cccc(NC(=O)C4CCCC4)c3)c12` [N-(3-{[5-(phenylcarbonyl)-7H-pyrrolo[2,3-d]pyrimidin-4-yl]amino}phenyl) cyclopentanecarboxamide]: the IC50 in test [1] amounted to 7010 nM; in test [2], 19000 nM.

Regarding `CC(=O)Nc1cccc(Nc2ncnc3[nH]cc(C(=O)c4ccccc4)c23)c1` [N-{3-[(5-benzoyl-7H-pyrrolo[2,3-d]pyrimidin-4-yl)amino]phenyl}acetamide], the IC50 came to 2170 nM in test [1] and 3870 nM in test [2].

As a reminder, the IC50 is the concentration that gives 50% inhibition. Read a low IC50 as greater potency in that assay.
